Measurements from patent US10906910B2, “Substituted bicyclic pyrimidine compounds with tubulin and multiple receptor inhibition” (Duquesne University of the Holy Spirit, priority 2014, dated 2021).

Experiments:
[1] = test system: bovine brain tubulin; assay: inhibition of tubulin assembly; type: biochemical
[2] = test system: tubulin (colchicine site); assay: inhibition of [3H]colchicine binding to tubulin; set-up: species or system bovine
[3] = target: VEGFR2 (Homo sapiens, UniProt P35968); assay: VEGFR2 kinase inhibition, whole-cell assay; type: cell-based; conditions: read-out: kinase inhibition IC50 [whole-cell assays] VEGFR2
[4] = target: PDGFRβ (Homo sapiens, UniProt P09619); assay: PDGFRβ kinase inhibition, whole-cell assay; type: cell-based
[5] = target: EGFR (Homo sapiens, UniProt P00533); assay: EGFR kinase inhibition, whole-cell assay; type: cell-based; conditions: read-out: kinase inhibition IC50 [whole-cell assays] EGFR
[6] = test system: A431 cells; assay: A431 cytotoxicity; type: cell-based; conditions: Homo sapiens, A-431
[7] = test system: CCRF-CEM; assay: NCI 60 panel, Leukemia CCRF-CEM; type: cell-based; conditions: Homo sapiens, read-out: Tumor cell inhibitory activity (NCI) GI50
[8] = test system: K-562; assay: NCI 60 panel, Leukemia K-562; type: cell-based; conditions: Homo sapiens, K562, read-out: Tumor cell inhibitory activity (NCI) GI50
[9] = test system: MOLT-4; assay: NCI 60 panel, Leukemia MOLT-4; type: cell-based; conditions: Homo sapiens, read-out: Tumor cell inhibitory activity (NCI) GI50
[10] = test system: SR; assay: NCI 60 panel, Leukemia SR; type: cell-based; conditions: Homo sapiens, read-out: Tumor cell inhibitory activity (NCI) GI50
[11] = test system: A549/ATCC; assay: NCI 60 panel, NSCLC A549/ATCC; type: cell-based; conditions: Homo sapiens, read-out: Tumor cell inhibitory activity (NCI) GI50
[12] = test system: HOP-62; assay: NCI 60 panel, NSCLC HOP-62; type: cell-based; conditions: Homo sapiens, read-out: Tumor cell inhibitory activity (NCI) GI50
[13] = test system: NCI-H226; assay: NCI 60 panel, NSCLC NCI-H226; type: cell-based; conditions: Homo sapiens, read-out: Tumor cell inhibitory activity (NCI) GI50
[14] = test system: NCI-H23; assay: NCI 60 panel, NSCLC NCI-H23; type: cell-based; conditions: Homo sapiens, read-out: Tumor cell inhibitory activity (NCI) GI50
[15] = test system: NCI-H322M; assay: NCI 60 panel, NSCLC NCI-H322M; type: cell-based; conditions: Homo sapiens, read-out: Tumor cell inhibitory activity (NCI) GI50
[16] = test system: NCI-H522; assay: NCI 60 panel, NSCLC NCI-H522; type: cell-based; conditions: Homo sapiens, read-out: Tumor cell inhibitory activity (NCI) GI50
[17] = test system: COLO 205; assay: NCI 60 panel, Colon Cancer COLO 205; type: cell-based; conditions: Homo sapiens, read-out: Tumor cell inhibitory activity (NCI) GI50
[18] = test system: HCT-116; assay: NCI 60 panel, Colon Cancer HCT-116; type: cell-based; conditions: Homo sapiens, read-out: Tumor cell inhibitory activity (NCI) GI50
[19] = test system: HCT-15; assay: NCI 60 panel, Colon Cancer HCT-15; type: cell-based; conditions: Homo sapiens, read-out: Tumor cell inhibitory activity (NCI) GI50
[20] = test system: HT29; assay: NCI 60 panel, Colon Cancer HT29; type: cell-based; conditions: Homo sapiens, HT-29, read-out: Tumor cell inhibitory activity (NCI) GI50
[21] = test system: SW-620; assay: NCI 60 panel, Colon Cancer SW-620; type: cell-based; conditions: Homo sapiens, read-out: Tumor cell inhibitory activity (NCI) GI50
[22] = test system: SF-295; assay: NCI 60 panel, CNS Cancer SF-295; type: cell-based; conditions: Homo sapiens, read-out: Tumor cell inhibitory activity (NCI) GI50
[23] = test system: SF-539; assay: NCI 60 panel, CNS Cancer SF-539; type: cell-based; conditions: Homo sapiens, read-out: Tumor cell inhibitory activity (NCI) GI50
[24] = test system: SNB-19; assay: NCI 60 panel, CNS Cancer SNB-19; type: cell-based; conditions: Homo sapiens, read-out: Tumor cell inhibitory activity (NCI) GI50
[25] = test system: SNB-75; assay: NCI 60 panel, CNS Cancer SNB-75; type: cell-based; conditions: Homo sapiens, read-out: Tumor cell inhibitory activity (NCI) GI50
[26] = test system: U251; assay: NCI 60 panel, CNS Cancer U251; type: cell-based; conditions: Homo sapiens, U-251, read-out: Tumor cell inhibitory activity (NCI) GI50
[27] = test system: LOX IMVI; assay: NCI 60 panel, Melanoma LOX IMVI; type: cell-based; conditions: Homo sapiens, read-out: Tumor cell inhibitory activity (NCI) GI50
[28] = test system: M14; assay: NCI 60 panel, Melanoma M14; type: cell-based; conditions: Homo sapiens, read-out: Tumor cell inhibitory activity (NCI) GI50
[29] = test system: MDA-MB-435; assay: NCI 60 panel, Melanoma MDA-MB-435; type: cell-based; conditions: Homo sapiens, read-out: Tumor cell inhibitory activity (NCI) GI50
[30] = test system: SK-MEL-2; assay: NCI 60 panel, Melanoma SK-MEL-2; type: cell-based; conditions: Homo sapiens, read-out: Tumor cell inhibitory activity (NCI) GI50
[31] = test system: SK-MEL-28; assay: NCI 60 panel, Melanoma SK-MEL-28; type: cell-based; conditions: Homo sapiens, read-out: Tumor cell inhibitory activity (NCI) GI50
[32] = test system: SK-MEL-5; assay: NCI 60 panel, Melanoma SK-MEL-5; type: cell-based; conditions: Homo sapiens, read-out: Tumor cell inhibitory activity (NCI) GI50
[33] = test system: UACC-257; assay: NCI 60 panel, Melanoma UACC-257; type: cell-based; conditions: Homo sapiens, read-out: Tumor cell inhibitory activity (NCI) GI50
[34] = test system: UACC-62; assay: NCI 60 panel, Melanoma UACC-62; type: cell-based; conditions: Homo sapiens, read-out: Tumor cell inhibitory activity (NCI) GI50
[35] = test system: IGROVI; assay: NCI 60 panel, Ovarian cancer IGROVI; type: cell-based; conditions: read-out: Tumor cell inhibitory activity (NCI) GI50
[36] = test system: OVCAR-3; assay: NCI 60 panel, Ovarian cancer OVCAR-3; type: cell-based; conditions: Homo sapiens, read-out: Tumor cell inhibitory activity (NCI) GI50
[37] = test system: OVCAR-5; assay: NCI 60 panel, Ovarian cancer OVCAR-5; type: cell-based; conditions: Homo sapiens, read-out: Tumor cell inhibitory activity (NCI) GI50
[38] = test system: OVCAR-8; assay: NCI 60 panel, Ovarian cancer OVCAR-8; type: cell-based; conditions: Homo sapiens, read-out: Tumor cell inhibitory activity (NCI) GI50
[39] = test system: NCI/ADR-RES; assay: NCI 60 panel, Ovarian cancer NCI/ADR-RES; type: cell-based; conditions: Homo sapiens, read-out: Tumor cell inhibitory activity (NCI) GI50
[40] = test system: SK-OV-3; assay: NCI 60 panel, Ovarian cancer SK-OV-3; type: cell-based; conditions: Homo sapiens, read-out: Tumor cell inhibitory activity (NCI) GI50
[41] = test system: 786-0; assay: NCI 60 panel, Renal Cancer 786-0; type: cell-based; conditions: Homo sapiens, read-out: Tumor cell inhibitory activity (NCI) GI50
[42] = test system: A498; assay: NCI 60 panel, Renal Cancer A498; type: cell-based; conditions: Homo sapiens, read-out: Tumor cell inhibitory activity (NCI) GI50
[43] = test system: SN12C; assay: NCI 60 panel, Renal Cancer SN12C; type: cell-based; conditions: Homo sapiens, read-out: Tumor cell inhibitory activity (NCI) GI50
[44] = test system: UO-31; assay: NCI 60 panel, Renal Cancer UO-31; type: cell-based; conditions: Homo sapiens, read-out: Tumor cell inhibitory activity (NCI) GI50
[45] = test system: PC-3; assay: NCI 60 panel, Prostate Cancer PC-3; type: cell-based; conditions: Homo sapiens, read-out: Tumor cell inhibitory activity (NCI) GI50
[46] = test system: DU-145; assay: NCI 60 panel, Prostate Cancer DU-145; type: cell-based; conditions: Homo sapiens, read-out: Tumor cell inhibitory activity (NCI) GI50
[47] = test system: MDA-MB-231/ATCC; assay: NCI 60 panel, Breast Cancer MDA-MB-231/ATCC; type: cell-based; conditions: Homo sapiens, read-out: Tumor cell inhibitory activity (NCI) GI50
[48] = test system: HS 578T; assay: NCI 60 panel, Breast Cancer HS 578T; type: cell-based; conditions: Homo sapiens, read-out: Tumor cell inhibitory activity (NCI) GI50
[49] = test system: BT-549; assay: NCI 60 panel, Breast Cancer BT-549; type: cell-based; conditions: Homo sapiens, read-out: Tumor cell inhibitory activity (NCI) GI50
[50] = test system: MDA-MB-468; assay: NCI 60 panel, Breast Cancer MDA-MB-468; type: cell-based; conditions: Homo sapiens, read-out: Tumor cell inhibitory activity (NCI) GI50
[51] = compared with combretastatin A-4

Sequence of PDGFRβ (P09619 33-1106, species assumed): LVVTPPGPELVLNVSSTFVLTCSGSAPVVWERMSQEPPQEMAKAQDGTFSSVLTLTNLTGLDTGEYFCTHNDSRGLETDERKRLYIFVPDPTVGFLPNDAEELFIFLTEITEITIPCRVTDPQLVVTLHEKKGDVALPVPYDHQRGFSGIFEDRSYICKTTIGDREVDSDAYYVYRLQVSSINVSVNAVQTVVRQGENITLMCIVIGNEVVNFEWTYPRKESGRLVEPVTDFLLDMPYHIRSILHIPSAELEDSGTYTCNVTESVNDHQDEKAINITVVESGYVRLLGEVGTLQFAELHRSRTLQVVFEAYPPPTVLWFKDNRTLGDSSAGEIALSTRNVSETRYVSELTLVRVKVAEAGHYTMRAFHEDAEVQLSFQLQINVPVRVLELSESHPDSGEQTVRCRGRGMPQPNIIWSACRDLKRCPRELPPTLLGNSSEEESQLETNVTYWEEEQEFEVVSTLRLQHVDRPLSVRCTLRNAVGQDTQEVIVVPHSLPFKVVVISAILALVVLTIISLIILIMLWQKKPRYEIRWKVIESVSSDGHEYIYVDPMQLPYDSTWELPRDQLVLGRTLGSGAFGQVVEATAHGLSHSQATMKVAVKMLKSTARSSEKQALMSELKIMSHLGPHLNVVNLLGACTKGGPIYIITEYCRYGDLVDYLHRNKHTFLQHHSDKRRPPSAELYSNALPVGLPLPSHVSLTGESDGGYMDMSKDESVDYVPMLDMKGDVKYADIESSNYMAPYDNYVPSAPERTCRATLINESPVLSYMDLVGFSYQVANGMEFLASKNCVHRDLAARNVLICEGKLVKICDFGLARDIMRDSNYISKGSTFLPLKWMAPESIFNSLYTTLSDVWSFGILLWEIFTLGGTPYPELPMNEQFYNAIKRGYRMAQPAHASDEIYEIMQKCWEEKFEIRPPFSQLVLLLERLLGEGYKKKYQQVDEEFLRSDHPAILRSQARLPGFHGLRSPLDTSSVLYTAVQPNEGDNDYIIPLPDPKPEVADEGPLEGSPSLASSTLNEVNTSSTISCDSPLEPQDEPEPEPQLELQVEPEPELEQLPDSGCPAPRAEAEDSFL
Sequence of VEGFR2 (P35968 20-1356, species assumed): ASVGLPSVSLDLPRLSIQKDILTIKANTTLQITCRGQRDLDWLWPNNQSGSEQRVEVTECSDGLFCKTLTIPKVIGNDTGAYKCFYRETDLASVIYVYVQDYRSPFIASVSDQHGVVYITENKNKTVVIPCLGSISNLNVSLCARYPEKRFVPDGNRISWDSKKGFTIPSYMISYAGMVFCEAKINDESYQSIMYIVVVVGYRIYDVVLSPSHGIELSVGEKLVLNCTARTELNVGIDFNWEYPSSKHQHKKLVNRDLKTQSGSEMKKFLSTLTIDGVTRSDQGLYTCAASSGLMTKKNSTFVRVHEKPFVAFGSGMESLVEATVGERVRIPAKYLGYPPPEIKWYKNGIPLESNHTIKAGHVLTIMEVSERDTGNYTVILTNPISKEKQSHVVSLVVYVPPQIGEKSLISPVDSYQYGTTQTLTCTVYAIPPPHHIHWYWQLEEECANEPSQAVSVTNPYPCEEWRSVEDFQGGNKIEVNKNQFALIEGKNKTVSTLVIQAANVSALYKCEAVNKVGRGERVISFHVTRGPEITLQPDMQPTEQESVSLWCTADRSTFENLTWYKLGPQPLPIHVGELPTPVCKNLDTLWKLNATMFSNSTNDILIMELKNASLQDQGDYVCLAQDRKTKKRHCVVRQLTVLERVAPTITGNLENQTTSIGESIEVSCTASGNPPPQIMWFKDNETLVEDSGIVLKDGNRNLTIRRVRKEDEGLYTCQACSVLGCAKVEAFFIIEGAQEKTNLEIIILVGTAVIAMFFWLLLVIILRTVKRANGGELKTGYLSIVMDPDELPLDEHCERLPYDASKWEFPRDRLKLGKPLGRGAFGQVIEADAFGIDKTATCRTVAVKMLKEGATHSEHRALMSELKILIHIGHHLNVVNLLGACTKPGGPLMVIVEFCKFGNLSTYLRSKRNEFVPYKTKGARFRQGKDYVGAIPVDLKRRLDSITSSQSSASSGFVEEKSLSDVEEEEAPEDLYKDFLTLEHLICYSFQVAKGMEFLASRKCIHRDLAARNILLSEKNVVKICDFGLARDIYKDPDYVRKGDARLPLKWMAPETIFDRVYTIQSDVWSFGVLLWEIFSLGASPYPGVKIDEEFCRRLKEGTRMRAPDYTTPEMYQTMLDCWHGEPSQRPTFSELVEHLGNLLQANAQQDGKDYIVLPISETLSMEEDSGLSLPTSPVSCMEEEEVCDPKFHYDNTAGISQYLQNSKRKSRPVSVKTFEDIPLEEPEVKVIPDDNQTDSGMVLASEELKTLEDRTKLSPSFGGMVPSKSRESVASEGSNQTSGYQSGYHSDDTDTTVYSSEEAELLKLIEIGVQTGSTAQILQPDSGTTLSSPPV
Sequence of EGFR (P00533 25-1210, species assumed): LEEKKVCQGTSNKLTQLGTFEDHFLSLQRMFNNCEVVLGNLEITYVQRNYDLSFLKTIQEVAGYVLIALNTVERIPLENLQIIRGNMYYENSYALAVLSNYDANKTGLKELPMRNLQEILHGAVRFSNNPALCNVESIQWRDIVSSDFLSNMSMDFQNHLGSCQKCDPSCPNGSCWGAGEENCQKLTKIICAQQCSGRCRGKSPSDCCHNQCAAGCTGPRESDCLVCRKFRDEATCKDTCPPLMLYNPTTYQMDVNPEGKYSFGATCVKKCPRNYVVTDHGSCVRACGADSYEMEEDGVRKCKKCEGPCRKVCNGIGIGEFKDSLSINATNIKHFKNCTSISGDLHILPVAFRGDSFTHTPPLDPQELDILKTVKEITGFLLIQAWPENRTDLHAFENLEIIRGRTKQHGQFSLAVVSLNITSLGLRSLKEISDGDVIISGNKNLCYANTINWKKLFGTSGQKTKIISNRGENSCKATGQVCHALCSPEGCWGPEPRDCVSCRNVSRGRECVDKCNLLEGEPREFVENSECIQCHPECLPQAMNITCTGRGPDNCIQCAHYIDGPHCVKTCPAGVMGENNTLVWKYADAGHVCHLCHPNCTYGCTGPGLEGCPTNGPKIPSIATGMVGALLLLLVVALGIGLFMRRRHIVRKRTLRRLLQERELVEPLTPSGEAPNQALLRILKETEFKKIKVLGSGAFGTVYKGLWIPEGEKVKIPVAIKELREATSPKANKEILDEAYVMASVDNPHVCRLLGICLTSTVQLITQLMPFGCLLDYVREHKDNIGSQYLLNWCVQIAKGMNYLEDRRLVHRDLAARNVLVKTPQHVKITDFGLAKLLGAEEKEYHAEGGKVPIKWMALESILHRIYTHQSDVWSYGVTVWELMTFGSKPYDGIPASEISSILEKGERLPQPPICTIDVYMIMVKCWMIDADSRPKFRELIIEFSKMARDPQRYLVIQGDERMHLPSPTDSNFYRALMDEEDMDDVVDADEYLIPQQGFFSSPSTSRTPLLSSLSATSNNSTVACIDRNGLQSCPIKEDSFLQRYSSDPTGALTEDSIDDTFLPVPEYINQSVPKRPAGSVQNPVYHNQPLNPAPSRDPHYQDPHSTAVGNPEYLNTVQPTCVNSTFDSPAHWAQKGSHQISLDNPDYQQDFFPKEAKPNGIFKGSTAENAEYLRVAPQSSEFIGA

COc1ccc(N(C)c2nc(C)nc3c(Cc4ccccc4)cn(C)c23)cc1 [Compound 4, 7-Benzyl-N-(4-methoxyphenyl)-N,2,5-trimethyl-5H-pyrrolo[3,2-d]pyrimidin-4-amine]
IC50 ([1]; bovine tubulin): 480 ± 8 nM | inhibition of bovine tubulin assembly, in words [1, 51]: effective and potent inhibitors | inhibition of colchicine binding (1 μM inhibitor) ([2]; 1 μM inhibitor, [3H]colchicine, in % (unit assumed)): 73 ± 3 | inhibition of colchicine binding (5 μM inhibitor) ([2]; 5 μM inhibitor, [3H]colchicine, in % (unit assumed)): 92 ± 0.2 | inhibition of [3H]colchicine binding to tubulin, in words [2, 51]: potent inhibitors | IC50 [3]: 33 nM | potency against PDGFRβ, in words [4]: potencies comparable with DMBI | IC50 ([4]; whole-cell assay, read-out: kinase inhibition IC50 [whole-cell assays] PDGFRβ): 10.3 nM | IC50 [5]: 2.3 ± 0.3 nM | IC50 [6]: 1.2 nM | GI50 [7]: 33.5 nM | GI50 [8]: 33.7 nM | GI50 [9]: 50.8 nM | GI50 [10]: 33.8 nM | GI50 [11]: 44 nM | GI50 [12]: 47.8 nM | GI50 [13]: 304 nM | GI50 [14]: 45.8 nM | GI50 [15]: 73.6 nM | GI50 [16]: 23.9 nM | GI50 [17]: 26.3 nM | GI50 [18]: 35 nM | GI50 [19]: 38.1 nM | GI50 [20]: 35.1 nM | GI50 [21]: 38.4 nM | GI50 [22]: 30.4 nM | GI50 [23]: 25.4 nM | GI50 [24]: 54.7 nM | GI50 [25]: 27.8 nM | GI50 [26]: 44.3 nM | GI50 [27]: 58.8 nM | GI50 [28]: 29.5 nM | GI50 [29]: 21.4 nM | GI50 [30]: 28.6 nM | GI50 [31]: 48.7 nM | GI50 [32]: 54.2 nM | GI50 [33]: 78.2 nM | GI50 [34]: 475 nM | GI50 [35]: 95.8 nM | GI50 [36]: 35.2 nM | GI50 [37]: 269 nM | GI50 [38]: 49.1 nM | GI50 [39]: 32.8 nM | GI50 [40]: 45.4 nM | GI50 [41]: 93.2 nM | GI50 [42]: 20.2 nM | GI50 [43]: 88.7 nM | GI50 [44]: 209 nM | GI50 [45]: 49.6 nM | GI50 [46]: 44.4 nM | GI50 [47]: 63.7 nM | GI50 [48]: 62.3 nM | GI50 [49]: 48.2 nM | GI50 [50]: 30.1 nM
